The source made the active and inactive calls. The rule behind the calls is not given here.
What was measured:
[1] = target: Cholinesterase (Equus caballus, UniProt P81908); assay: Inhibition of equine serum butyrylcholinesterase preincubated for 5 mins followed by addition of S-butyrylthiocholine iodide as substrate measured after 60 to 120 mins by Ellmans method
[2] = Antioxidant activity assessed as DPPH radical scavenging activity at 1000 uM incubated in dark for 30 mins by spectrophotometry; format: physicochemical; conditions: 0.5 h
[3] = target: Cholinesterase (Homo sapiens, UniProt P06276); assay: Inhibition of human serum butyrylcholinesterase preincubated for 5 mins followed by addition of S-butyrylthiocholine iodide as substrate measured after 60 to 120 mins by Ellmans method
[4] = target: Acetylcholinesterase (Homo sapiens, UniProt P22303); assay: Inhibition of human erythrocytes acetylcholinesterase preincubated for 5 mins followed by addition of acetylthiocholine iodide as substrate measured after 60 to 120 mins by Ellmans method
[5] = Selectivity index, ratio of IC50 for equine serum butyrylcholinesterase to IC50 for electric eel acetylcholinesterase
[6] = species: Homo sapiens; assay: Selectivity index, ratio of IC50 for human serum butyrylcholinesterase to IC50 for human erythrocytes acetylcholinesterase
[7] = Cytotoxicity against […] PC12 cells assessed as cell viability at 20 uM after 24 hrs by MTT assay; format: cell-based; conditions: rat, pc-12, 24 h
[8] = target: Acetylcholinesterase (Electrophorus electricus, UniProt O42275); assay: Inhibition of electric eel acetylcholinesterase preincubated for 5 mins followed by addition of acetylthiocholine iodide as substrate measured after 60 to 120 mins by Ellmans method
[9] = target: Cholinesterase (Equus caballus) (UniProt P81908); assay: Inhibition of equine serum butyrylcholinesterase at 1000 uM preincubated for 5 mins followed by addition of S-butyrylthiocholine iodide as substrate measured after 60 to 120 mins by Ellmans method
[10] = target: Acetylcholinesterase (Electrophorus electricus) (UniProt O42275); assay: Inhibition of electric eel acetylcholinesterase at 1000 uM preincubated for 5 mins followed by addition of acetylthiocholine iodide as substrate measured after 60 to 120 mins by Ellmans method
[11] = DPPH radical solution, 30 min
Description: Antioxidant activity assessed as DPPH radical scavenging activity incubated in dark for 30 mins by spectrophotometry

[12] = test system: PC-12; assay: Neuroprotective activity against H2O2 induced damage in […] PC12 cells assessed as cell viability at 1 to 10 uM preincubated for 4 hrs followed by H2O2 challenge for 20 hrs by MTT assay; format: functional, cell-based; conditions: Rattus norvegicus
[13] = target: Cholinesterase (Equus caballus) (UniProt P81908); assay: Mixed-type inhibition of equine serum butyrylcholinesterase at 0.5 to 2 uM preincubated for 5 mins followed by addition of S-butyrylthiocholine iodide as substrate measured after 60 to 120 mins by Lineweaver-Burk plot analysis
[14] = Metal chelating activity assessed as ferric-compound complex formation at 75 uM after 30 mins by UV-vis spectrometry; format: physicochemical; conditions: 0.5 h
[15] = Metal chelating activity assessed as ferrous-compound complex formation at 75 uM after 30 mins by UV-vis spectrometry; format: physicochemical; conditions: 0.5 h
[16] = target: Acetylcholinesterase (Electrophorus electricus) (UniProt O42275); assay: Mixed-type inhibition of electric eel acetylcholinesterase at 0.2 to 0.8 uM preincubated for 5 mins followed by addition of acetylthiocholine iodide as substrate measured after 60 to 120 mins by Lineweaver-Burk plot analysis
[17] = Metal chelating activity assessed as zinc-compound complex formation at 75 uM after 30 mins by UV-vis spectrometry; format: physicochemical; conditions: 0.5 h
[18] = Metal chelating activity assessed as copper-compound complex formation at 75 uM after 30 mins by UV-vis spectrometry; format: physicochemical; conditions: 0.5 h
[19] = in vitro; conditions: PAMPA

Cholinesterase (Equus caballus, UniProt P81908), sequence (P81908 whole entry): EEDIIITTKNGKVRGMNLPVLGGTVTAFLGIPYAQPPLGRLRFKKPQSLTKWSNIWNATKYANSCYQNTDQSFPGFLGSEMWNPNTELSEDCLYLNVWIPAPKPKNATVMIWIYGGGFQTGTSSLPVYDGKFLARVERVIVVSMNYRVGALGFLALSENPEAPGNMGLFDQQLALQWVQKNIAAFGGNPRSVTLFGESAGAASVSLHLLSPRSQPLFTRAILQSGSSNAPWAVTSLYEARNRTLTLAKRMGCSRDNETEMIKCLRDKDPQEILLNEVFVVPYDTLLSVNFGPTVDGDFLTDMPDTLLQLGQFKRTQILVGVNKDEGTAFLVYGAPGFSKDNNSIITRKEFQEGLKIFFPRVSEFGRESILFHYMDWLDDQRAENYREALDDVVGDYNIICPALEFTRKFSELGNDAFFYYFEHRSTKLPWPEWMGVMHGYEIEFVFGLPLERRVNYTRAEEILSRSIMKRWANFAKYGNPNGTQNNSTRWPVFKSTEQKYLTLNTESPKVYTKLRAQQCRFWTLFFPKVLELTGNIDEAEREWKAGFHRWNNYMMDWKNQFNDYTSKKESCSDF
Cholinesterase (Equus caballus), sequence (P81908 whole entry): as above
Acetylcholinesterase (Homo sapiens, UniProt P22303), sequence (P22303 whole entry): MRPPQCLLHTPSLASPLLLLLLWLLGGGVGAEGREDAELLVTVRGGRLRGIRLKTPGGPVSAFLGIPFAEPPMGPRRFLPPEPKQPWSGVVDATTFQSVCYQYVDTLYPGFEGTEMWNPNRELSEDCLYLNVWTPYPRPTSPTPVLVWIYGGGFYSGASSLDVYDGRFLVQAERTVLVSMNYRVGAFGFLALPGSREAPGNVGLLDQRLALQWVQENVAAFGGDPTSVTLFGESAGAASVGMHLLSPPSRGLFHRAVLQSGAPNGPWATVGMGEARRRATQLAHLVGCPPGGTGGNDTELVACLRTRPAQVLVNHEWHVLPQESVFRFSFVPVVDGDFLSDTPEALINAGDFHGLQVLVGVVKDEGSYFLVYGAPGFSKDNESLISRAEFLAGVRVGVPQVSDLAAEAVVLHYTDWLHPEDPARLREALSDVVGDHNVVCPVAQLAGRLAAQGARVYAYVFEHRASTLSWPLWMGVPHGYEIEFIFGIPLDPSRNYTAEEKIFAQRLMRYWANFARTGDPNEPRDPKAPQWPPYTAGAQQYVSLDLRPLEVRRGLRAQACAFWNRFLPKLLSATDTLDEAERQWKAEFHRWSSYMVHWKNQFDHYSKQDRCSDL
Acetylcholinesterase (Electrophorus electricus, UniProt O42275), sequence (O42275 whole entry): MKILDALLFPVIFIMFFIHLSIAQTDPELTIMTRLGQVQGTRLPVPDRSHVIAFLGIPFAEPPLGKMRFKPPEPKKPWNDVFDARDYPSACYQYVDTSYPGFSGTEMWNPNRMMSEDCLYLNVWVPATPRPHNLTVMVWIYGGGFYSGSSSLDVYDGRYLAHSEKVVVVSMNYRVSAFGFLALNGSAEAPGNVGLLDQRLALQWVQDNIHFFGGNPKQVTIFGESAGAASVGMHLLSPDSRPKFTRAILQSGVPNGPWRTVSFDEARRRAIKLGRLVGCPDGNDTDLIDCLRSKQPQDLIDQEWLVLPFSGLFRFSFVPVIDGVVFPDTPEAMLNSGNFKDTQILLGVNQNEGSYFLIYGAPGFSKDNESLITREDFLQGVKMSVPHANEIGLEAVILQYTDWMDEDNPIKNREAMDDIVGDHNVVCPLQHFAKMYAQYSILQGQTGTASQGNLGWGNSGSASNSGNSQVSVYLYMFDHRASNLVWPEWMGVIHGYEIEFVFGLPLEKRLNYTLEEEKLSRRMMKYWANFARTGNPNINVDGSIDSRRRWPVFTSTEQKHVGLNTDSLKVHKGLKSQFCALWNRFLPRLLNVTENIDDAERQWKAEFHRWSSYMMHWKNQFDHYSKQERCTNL
Acetylcholinesterase (Electrophorus electricus), sequence (O42275 24-633 limits assumed): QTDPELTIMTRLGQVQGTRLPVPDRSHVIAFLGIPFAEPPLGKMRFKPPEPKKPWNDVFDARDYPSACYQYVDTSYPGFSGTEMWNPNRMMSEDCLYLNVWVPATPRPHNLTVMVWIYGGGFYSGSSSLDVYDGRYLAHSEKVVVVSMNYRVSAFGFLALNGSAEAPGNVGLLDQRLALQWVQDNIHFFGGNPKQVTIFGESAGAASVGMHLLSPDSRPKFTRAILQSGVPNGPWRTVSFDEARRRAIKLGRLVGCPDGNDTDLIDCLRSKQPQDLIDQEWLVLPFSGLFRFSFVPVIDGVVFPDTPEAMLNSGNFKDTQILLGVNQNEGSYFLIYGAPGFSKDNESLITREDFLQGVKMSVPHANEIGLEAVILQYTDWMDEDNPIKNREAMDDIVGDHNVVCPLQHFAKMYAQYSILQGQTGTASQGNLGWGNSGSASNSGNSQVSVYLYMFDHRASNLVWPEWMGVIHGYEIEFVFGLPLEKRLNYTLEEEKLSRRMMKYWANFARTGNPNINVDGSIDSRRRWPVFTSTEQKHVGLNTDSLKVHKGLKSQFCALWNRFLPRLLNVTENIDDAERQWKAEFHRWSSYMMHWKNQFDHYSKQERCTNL
Cholinesterase (Homo sapiens, UniProt P06276), sequence (P06276 whole entry): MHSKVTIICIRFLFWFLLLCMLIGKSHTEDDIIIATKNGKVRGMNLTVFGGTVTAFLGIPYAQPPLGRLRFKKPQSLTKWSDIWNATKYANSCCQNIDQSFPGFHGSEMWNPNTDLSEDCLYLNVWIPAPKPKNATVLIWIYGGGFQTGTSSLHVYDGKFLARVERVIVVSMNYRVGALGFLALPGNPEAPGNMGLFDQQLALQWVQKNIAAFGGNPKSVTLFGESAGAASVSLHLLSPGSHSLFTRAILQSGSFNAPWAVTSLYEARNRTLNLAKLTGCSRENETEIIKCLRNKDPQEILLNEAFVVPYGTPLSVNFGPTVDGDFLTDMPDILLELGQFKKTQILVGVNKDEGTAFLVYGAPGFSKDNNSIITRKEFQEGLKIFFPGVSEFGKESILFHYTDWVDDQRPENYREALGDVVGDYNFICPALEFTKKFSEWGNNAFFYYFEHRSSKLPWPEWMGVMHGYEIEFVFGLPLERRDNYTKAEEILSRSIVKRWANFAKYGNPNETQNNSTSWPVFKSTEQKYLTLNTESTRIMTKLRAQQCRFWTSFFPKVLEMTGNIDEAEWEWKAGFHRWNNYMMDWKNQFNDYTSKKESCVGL

Row | Compound | IC50 [1] [µM] | inhibition (INH) [2] | IC50 [3] [µM] | IC50 [4] [µM] | Ratio IC50 [5] | Ratio IC50 [6] | Activity [7] | IC50 [8] [µM] | IC50 [11] [µM] | further results
1 | COc1cc(/C=C/C(=O)NCCC2CCN(Cc3ccccc3)CC2)ccc1OC(C)=O | 0.67 | Not Active | 0.245 | 0.339 | 2.31 | 0.72 | Non-toxic | 0.29 | – | –
2 | NC1CCN(Cc2ccccc2)CC1 | – | – | – | – | – | – | – | – | – | inhibition [9]: inactive; inhibition [10]: inactive
3 | COc1cc(/C=C/C(=O)NC2CCN(Cc3ccccc3)CC2)cc(OC)c1O | 7.34 | – | – | – | 0.26 | – | Non-toxic | 28.2 | 22.3 | –
4 | COc1cc(/C=C/C(=O)CC(=O)NC2CCN(Cc3ccccc3)CC2)ccc1O | 53.2 | – | – | – | 1.99 | – | Non-toxic | 26.3 | 88.7 | –
5 | COc1cccc(/C=C/C(=O)NCCC2CCN(Cc3ccccc3)CC2)c1 | 0.244 | Not Active | 1.44 | 0.69 | 0.642 | 2.09 | Non-toxic | 0.383 | – | –
6 | COc1cc(/C=C/C(=O)NC2CCN(Cc3ccccc3)CC2)ccc1OC(C)=O | 17.3 | Not Active | – | – | 0.786 | – | Non-toxic | 22 | – | –
7 | COc1cc(CCC(=O)NC2CCN(Cc3ccccc3)CC2)ccc1O | 31.9 | – | – | – | 0.949 | – | Non-toxic | 33.6 | 55.1 | –
8 | O=C(/C=C/c1ccccc1O)NCCC1CCN(Cc2ccccc2)CC1 | 1.06 | – | 0.988 | 2.68 | 0.491 | 0.37 | Non-toxic | 2.16 | 977 | –
9 | COc1ccc(/C=C/C(=O)NCCC2CCN(Cc3ccccc3)CC2)cc1O | 2.47 | – | 3.24 | 1.66 | 2.33 | 1.95 | Non-toxic | 1.06 | 764 | –
10 | O=C(/C=C/c1ccc(Cl)cc1)NCCC1CCN(Cc2ccccc2)CC1 | 2.77 | Not Active | 2.07 | 0.362 | 5.32 | 5.72 | Toxic | 0.521 | – | –
11 | O=C(/C=C/c1ccc(O)cc1)CC(=O)NC1CCN(Cc2ccccc2)CC1 | 3.1 | – | – | – | 0.053 | – | Non-toxic | 58.3 | 890 | –
12 | NCCC1CCN(Cc2ccccc2)CC1 | – | – | – | – | – | – | – | 159 | – | inhibition [9]: inactive
13 | O=C(/C=C/c1ccc(F)cc1)NC1CCN(Cc2ccccc2)CC1 | 90.8 | Not Active | – | – | 1.53 | – | Non-toxic | 59.3 | – | –
14 | COc1cc(/C=C/C(=O)NC2CCN(Cc3ccccc3)CC2)cc(OC)c1OC | 1.25 | Not Active | – | – | 0.038 | – | Non-toxic | 31.6 | – | –
15 | O=C(/C=C/c1ccc(Cl)cc1)NC1CCN(Cc2ccccc2)CC1 | 51.4 | Not Active | – | – | 0.759 | – | Non-toxic | 67.7 | – | –
16 | O=C(/C=C/c1ccc([N+](=O)[O-])cc1)NCCC1CCN(Cc2ccccc2)CC1 | 3.1 | Not Active | 4.23 | 0.337 | 6.98 | 12.5 | Non-toxic | 0.444 | – | –
17 | O=C(/C=C/c1ccc(O)cc1)NC1CCN(Cc2ccccc2)CC1 | 146 | – | – | – | 2.06 | – | Non-toxic | 70.8 | 980 | –

Row | Compound | IC50 [1] [µM] | inhibition (INH) [2] | IC50 [3] [µM] | IC50 [4] [µM] | Ratio IC50 [5] | Ratio IC50 [6] | Activity [7] | IC50 [8] [µM] | IC50 [11] [µM] | further results
18 | O=C(/C=C/c1ccccc1)NCCC1CCN(Cc2ccccc2)CC1 | 0.39 | Not Active | 1.41 | 0.411 | 0.718 | 3.43 | Non-toxic | 0.543 | – | –
19 | O=C(/C=C/c1ccc([N+](=O)[O-])cc1)NC1CCN(Cc2ccccc2)CC1 | 9.01 | Not Active | – | – | 1.26 | – | Non-toxic | 7.12 | – | –
20 | O=C(/C=C/c1ccc(F)cc1)NCCC1CCN(Cc2ccccc2)CC1 | 1.98 | Not Active | 7.51 | 3.3 | 2.43 | 2.28 | Non-toxic | 0.815 | – | –
21 | COc1cc(/C=C/C(=O)NCCC2CCN(Cc3ccccc3)CC2)cc(OC)c1O | 0.976 | – | 1.22 | 0.321 | 2.2 | 3.8 | Non-toxic | 0.398 | 24.9 | Activity [12]: Active; inhibition [13]: Active; Activity [14]: Not Active; Activity [15]: Not Active; inhibition [16]: Active; Activity [17]: Not Active; Activity [18]: Active; Papp at 16 h, 5 mg/mL [19]: 7.68 ×10⁻⁶ cm/s
22 | COc1cc(/C=C/C(=O)CC(=O)NCCC2CCN(Cc3ccccc3)CC2)ccc1O | 1.08 | – | – | – | 0.415 | – | Non-toxic | 2.6 | 76.8 | –
23 | O=C(/C=C/c1ccc(O)c(O)c1)NCCC1CCN(Cc2ccccc2)CC1 | 165 | – | 145 | 1.45 | 31.9 | 100 | Non-toxic | 5.17 | 10.7 | Activity [12]: Active; Papp at 16 h, 5 mg/mL [19]: 5.38 ×10⁻⁶ cm/s
24 | COc1ccc(/C=C/C(=O)NCCC2CCN(Cc3ccccc3)CC2)cc1OC | 1.55 | Not Active | 2.54 | 0.526 | 5.43 | 4.83 | Non-toxic | 0.285 | – | –
25 | COc1cc(/C=C/C(=O)CC(=O)/C=C/c2ccc(O)c(OC)c2)ccc1O [CURCUMIN] | – | – | – | – | 4.43 | – | – | – | 23.3 | inhibition [9]: inactive; inhibition [10]: inactive
26 | COc1cc(CCC(=O)NCCC2CCN(Cc3ccccc3)CC2)ccc1O | 4.4 | – | 0.286 | 5.32 | 0.588 | 0.054 | Non-toxic | 7.48 | 48.3 | Activity [12]: Active
27 | COc1cc(/C=C/C(=O)NCCC2CCN(Cc3ccccc3)CC2)cc(OC)c1OC | 0.416 | Not Active | 0.669 | 0.234 | 3.2 | 2.86 | Non-toxic | 0.13 | – | Papp at 16 h, 5 mg/mL [19]: 7.43 ×10⁻⁶ cm/s
28 | Cc1c(C)c2c(c(C)c1O)CCC(C)(C(=O)O)O2 (stereo not drawn) | – | – | – | – | – | – | – | – | – | Activity [12]: Active
29 | COc1cc(/C=C/C(=O)NC2CCN(Cc3ccccc3)CC2)ccc1O | 49.2 | – | – | – | 1.68 | – | Non-toxic | 29.3 | 32.5 | –
30 | O=C(/C=C/c1ccc(O)c(O)c1)NC1CCN(Cc2ccccc2)CC1 | 15 | – | – | – | 0.241 | – | Non-toxic | 62.1 | 10.6 | Activity [12]: Active
31 | COc1cc(/C=C/C(=O)NCCC2CCN(Cc3ccccc3)CC2)ccc1O | 1.22 | – | 1.12 | 0.729 | 1.87 | 1.54 | Non-toxic | 0.651 | 34.1 | Activity [12]: Active; Papp at 16 h, 5 mg/mL [19]: 5.16 ×10⁻⁶ cm/s
32 | COc1cc(/C=C/C(=O)O)ccc1O [FERULATE] | – | – | – | – | 4.95 | – | – | – | 30.6 | inhibition [9]: inactive; inhibition [10]: inactive
33 | O=C(/C=C/c1ccc(O)cc1)NCCC1CCN(Cc2ccccc2)CC1 | 1.24 | – | 0.784 | 2.2 | 1.42 | 0.36 | Non-toxic | 0.874 | 936 | –

Reference: ChEMBL document CHEMBL3817754, “Synthesis and evaluation of donepezilferulic acid hybrids as multi-target-directed ligands against Alzheimer's disease” (Medchemcomm, 2016)
